Publication PMC9519552, “Activation of the human insulin receptor by non-insulin-related peptides” (Nature Communications, 2022)
Each block holds one molecule with its values, some of them ahead of it. Positions of bridges follow the written chain, without caps; N, C: chain ends. Non-standard residues stand in square brackets, D forms with d. Residues, ends and D or L forms follow the SMILES beside them. *: point of attachment. X1 = NCc1ccc(CC(=O)*)cc1; Aib = CC(C)(N)C(=O)O

Columns and labels:
[1] = system: [holoIR-A]-expressing IM-9 human lymphoblast cells; experiment: holoIR-A accelerated dissociation assay of pre-bound 125I-insulin; format: binding; conditions: IM-9 cells, 1:40 dilution, 16 °C, 30 min; n = 3
Experimental: Ice-cold 15-25 pM ^125I-insulin solution was added to IM-9 cells and incubated at 4 °C for 2.5 h for pre-bound experiments. […] Following receptor and ^125I-insulin pre-bound, the mix was quickly centrifugated and supernatant was removed. The bound ^125I-insulin and IM-9 cells were then resuspended with 16 °C pre-equilibrated HBB, pH 7.6. The ^125I-ligand/IM-9 cell mixture was aliquoted to cold compounds at 1:40 ratio, respectively. The reactions were incubated at 16 °C for 30 min to allow dissociation of prebound ^125I-insulin and then harvested by centrifugation and aspiration of the supernatant. The radioactivity of cell pellets was determined by gamma counter (Perkin Elmer). Samples were tested in three independent assay runs on three different days. Individual measurements are provided as Source Data.

human IR-A (holoIR-A) = target: T1, human IR-A (holoIR-A) (Homo sapiens, UniProt P06213); experiment: holoIR-A competitive radioligand binding assay (scintillation proximity assay)
T1 construct: expressed in transfected cells; host or cells: HEK293 (ATCC #CRL-1573), stably transfected; membrane preparation
T1 sequence (P06213 28-1370 isoform P06213-2 limits assumed): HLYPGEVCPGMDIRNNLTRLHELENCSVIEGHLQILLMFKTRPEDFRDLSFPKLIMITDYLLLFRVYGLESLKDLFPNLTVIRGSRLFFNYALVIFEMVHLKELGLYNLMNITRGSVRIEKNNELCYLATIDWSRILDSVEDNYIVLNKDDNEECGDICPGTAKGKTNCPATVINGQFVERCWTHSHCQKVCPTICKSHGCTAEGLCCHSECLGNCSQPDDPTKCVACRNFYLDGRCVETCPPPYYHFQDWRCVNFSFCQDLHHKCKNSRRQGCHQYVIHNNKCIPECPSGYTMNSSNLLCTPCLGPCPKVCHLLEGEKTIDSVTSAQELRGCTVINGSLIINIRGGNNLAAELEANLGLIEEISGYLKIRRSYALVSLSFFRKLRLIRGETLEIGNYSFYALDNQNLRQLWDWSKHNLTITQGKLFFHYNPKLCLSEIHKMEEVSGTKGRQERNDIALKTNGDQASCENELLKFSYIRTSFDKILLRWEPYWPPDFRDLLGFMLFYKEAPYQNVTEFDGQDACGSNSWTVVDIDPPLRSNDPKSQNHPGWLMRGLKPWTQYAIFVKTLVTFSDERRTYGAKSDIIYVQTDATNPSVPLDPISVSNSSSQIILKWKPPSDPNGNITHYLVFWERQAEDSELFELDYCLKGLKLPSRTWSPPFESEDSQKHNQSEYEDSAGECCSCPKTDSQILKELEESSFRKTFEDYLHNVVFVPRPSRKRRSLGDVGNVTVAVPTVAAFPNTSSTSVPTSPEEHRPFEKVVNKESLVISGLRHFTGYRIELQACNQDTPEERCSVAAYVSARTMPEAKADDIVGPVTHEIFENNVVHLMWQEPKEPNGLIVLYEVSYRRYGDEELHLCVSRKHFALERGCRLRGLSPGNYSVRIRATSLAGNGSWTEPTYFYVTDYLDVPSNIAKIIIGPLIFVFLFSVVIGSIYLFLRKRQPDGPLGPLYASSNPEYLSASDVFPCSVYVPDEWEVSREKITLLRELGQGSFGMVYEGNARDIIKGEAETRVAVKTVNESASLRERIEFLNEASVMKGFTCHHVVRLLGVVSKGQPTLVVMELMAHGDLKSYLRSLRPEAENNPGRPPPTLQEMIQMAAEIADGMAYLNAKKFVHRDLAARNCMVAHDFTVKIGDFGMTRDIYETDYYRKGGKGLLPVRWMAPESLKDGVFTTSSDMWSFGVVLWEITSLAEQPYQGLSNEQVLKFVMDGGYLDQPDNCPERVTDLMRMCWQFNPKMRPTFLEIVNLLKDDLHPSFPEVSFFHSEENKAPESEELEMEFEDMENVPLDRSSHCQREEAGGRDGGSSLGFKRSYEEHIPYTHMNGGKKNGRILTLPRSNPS
T1 sequence (P06213 763-1382 partner limits assumed): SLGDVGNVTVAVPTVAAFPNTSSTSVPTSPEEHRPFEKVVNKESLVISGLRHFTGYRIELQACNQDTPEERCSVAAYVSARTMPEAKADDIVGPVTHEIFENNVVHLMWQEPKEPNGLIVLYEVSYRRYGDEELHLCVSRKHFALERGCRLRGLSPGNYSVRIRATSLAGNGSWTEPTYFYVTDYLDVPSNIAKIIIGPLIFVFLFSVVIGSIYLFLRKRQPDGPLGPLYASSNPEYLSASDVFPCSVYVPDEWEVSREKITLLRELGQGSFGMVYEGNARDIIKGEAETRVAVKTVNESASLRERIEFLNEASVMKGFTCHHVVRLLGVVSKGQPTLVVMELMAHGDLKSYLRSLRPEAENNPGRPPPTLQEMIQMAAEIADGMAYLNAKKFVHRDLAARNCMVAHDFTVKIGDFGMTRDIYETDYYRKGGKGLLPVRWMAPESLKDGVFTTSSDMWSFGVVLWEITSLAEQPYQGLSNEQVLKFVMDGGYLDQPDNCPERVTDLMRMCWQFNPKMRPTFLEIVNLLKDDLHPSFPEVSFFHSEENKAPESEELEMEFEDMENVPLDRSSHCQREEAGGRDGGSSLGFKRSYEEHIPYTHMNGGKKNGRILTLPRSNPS
In short: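 Membranes from HEK293 cells stably expressing C9-tagged human IR-A were used in a WGA-bead SPA competition assay in 50 mM Tris-HCl pH 7.5, 150 mM NaCl, 0.1% fatty-acid-free BSA. Ten-point 3-fold dilutions were incubated 10 h at room temperature before scintillation counting. Percent specific inhibition was calculated after nonspecific-binding correction, from three independent runs.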

[2] = target: T2, human holoIR-A over-expressed in HEK293 cells (Homo sapiens, UniProt P06213); experiment: holoIR-A auto-phosphorylation assay (ELISA); format: cell-based
T2 construct: expressed in transfected cells; host or cells: HEK293, stably transfected
T2 sequence (P06213 28-1370 isoform P06213-2 limits assumed): as the sequence (P06213 28-1370 isoform P06213-2 limits assumed) above
T2 sequence (P06213 763-1382 partner limits assumed): as the sequence (P06213 763-1382 partner limits assumed) above
Experimental: Phosphorylation was quantified using an ELISA technique. Ninety-six well, flat-bottom microplates (Greiner Bio-One) were pre-coated with 2 µg mL^−1 anti-C9 monoclonal antibody (Rho 1D4; University of British Columbia)[27] in 20 mM sodium carbonate, pH 9.6, at 4 °C for overnight prior to the assay. On the assay day, plates were washed 3× with 0.1% Tween in 50 mM Tris Buffer Saline, pH 7.5 (TBST), and then blocked for greater than 1 h at room temperature (RT) with 1% BSA (Sigma) in TBST.
Stably transfected HEK293 cells over-expressing human holoIR-A containing a C-terminal C9 epitope tag ([…]), were plated at 6 × 10^4 cells per well serum-starved using 0.1% BSA in DMEM (Gibco) for overnight at standard tissue culture condition. […] After a 15-min incubation in lysis buffer at 4 °C, the lysate was transferred to anti-C9 antibody coated capture plate (Rho 1D4; University of British Columbia)[27]. […] After a 1 h incubation at room temperature, the secondary antibody was removed by washing 3× with TBST. Signal detection occurred with the addition of TMB, an HRP substrate (Pierce). After 5–10 min, the reaction was stopped by adding an equal volume of 2 M H2SO4, and the absorbance readings at 450 nm (A450) were recorded using a Envision plate reader (PerkinElmer). Samples were tested in three independent assay runs on three different days.
Percent specific response (y-axis) was plotted versus the log concentration of compound (x-axis) using Prism Version 9.3.1 (GraphPad Software). Individual measurements are provided as Source Data.

[3] = target: the molecule itself; experiment: cryo-EM structure; IM459-complexed hIR-A^ecto, eluted with IM459 from an insulin-affinity column and purified by SEC in TBSA; focussed refinement to ca 5.0 Å

affinity for hIR (in words) (human IR-A (holoIR-A); comparable to that of BHI): sub-nM
Ki (human IR-A (holoIR-A); primary peptide set, mean of 3 runs, read-out: IRA Binding Ki Mean): 0.206 nM
EC50 ([2]; primary peptide set, mean of 3 runs, read-out: hIRA Phosph EC50 Mean): 7.36 nM
hIRA Phosph EC50 Run 1 ([2]; primary peptide set, run 1): 6.534 nM
hIRA Phosph EC50 Run 2 ([2]; primary peptide set, run 2): 8.090 nM
weaker activity than BHI in an hIR autophosphorylation assay ([2]; relative to biosynthetic human insulin): ~2.5 fold
Molecule: CC[C@H](C)[C@H](NC(=O)[C@H](CCCCN)NC(=O)C(C)(C)NC(=O)[C@H](Cc1c[nH]c2ccccc12)NC(=O)[C@H](CCC(=O)O)NC(=O)[C@H](CCC(N)=O)NC(=O)[C@H](CCC(=O)O)NC(=O)[C@H](CC(C)C)NC(=O)[C@H](CO)NC(=O)Cc1ccc(CN)cc1)C(=O)N[C@@H](CCC(=O)O)C(=O)N[C@H]1CSSC[C@@H](C(=O)N2CCC[C@H]2C(=O)N2CCC[C@H]2C(=O)N[C@@H](CCCCN)C(=O)N[C@@H](CCCCN)C(=O)N[C@@H](C)C(=O)N[C@@H](Cc2ccc(OC)cc2)C(=O)N[C@@H](Cc2ccc(O)cc2)C(=O)N[C@@H](CCCCN)C(=O)N[C@@H](Cc2c[nH]c3ccccc23)C(=O)N[C@@H](Cc2ccccc2)C(=O)N[C@@H](CCC(=O)O)C(=O)N[C@@H](CCCNC(=N)N)C(=O)N[C@@H](CCC(N)=O)C(=O)N[C@@H](CC(C)C)C(=O)N[C@@H](CCCCN)C(N)=O)NC(=O)[C@H](CCCCN)NC(=O)CNC(=O)[C@H](Cc2ccc(O)cc2)NC(=O)[C@H](C(C)C)NC(=O)[C@H](CCC(=O)O)NC1=O [IM459] (X1-SLEQEW[Aib]KIECEVYGKCPPKKAY(Me)YKWFERQLK-NH2; disulfide 11-17)
effect on dissociation of pre-bound I125-insulin tracer from native membrane-expressed hIR (in words) [1]: decreases dissociation of the pre-bound insulin tracer

B1: hIR-A^ecto (insulin receptor isoform A ectodomain, residues 1-914) (domain or fragment, human, UniProt P06213-2 28-941, looked up)
chain: HLYPGEVCPGMDIRNNLTRLHELENCSVIEGHLQILLMFKTRPEDFRDLSFPKLIMITDYLLLFRVYGLESLKDLFPNLTVIRGSRLFFNYALVIFEMVHLKELGLYNLMNITRGSVRIEKNNELCYLATIDWSRILDSVEDNYIVLNKDDNEECGDICPGTAKGKTNCPATVINGQFVERCWTHSHCQKVCPTICKSHGCTAEGLCCHSECLGNCSQPDDPTKCVACRNFYLDGRCVETCPPPYYHFQDWRCVNFSFCQDLHHKCKNSRRQGCHQYVIHNNKCIPECPSGYTMNSSNLLCTPCLGPCPKVCHLLEGEKTIDSVTSAQELRGCTVINGSLIINIRGGNNLAAELEANLGLIEEISGYLKIRRSYALVSLSFFRKLRLIRGETLEIGNYSFYALDNQNLRQLWDWSKHNLTITQGKLFFHYNPKLCLSEIHKMEEVSGTKGRQERNDIALKTNGDQASCENELLKFSYIRTSFDKILLRWEPYWPPDFRDLLGFMLFYKEAPYQNVTEFDGQDACGSNSWTVVDIDPPLRSNDPKSQNHPGWLMRGLKPWTQYAIFVKTLVTFSDERRTYGAKSDIIYVQTDATNPSVPLDPISVSNSSSQIILKWKPPSDPNGNITHYLVFWERQAEDSELFELDYCLKGLKLPSRTWSPPFESEDSQKHNQSEYEDSAGECCSCPKTDSQILKELEESSFRKTFEDYLHNVVFVPRPSRKRRSLGDVGNVTVAVPTVAAFPNTSSTSVPTSPEEHRPFEKVVNKESLVISGLRHFTGYRIELQACNQDTPEERCSVAAYVSARTMPEAKADDIVGPVTHEIFENNVVHLMWQEPKEPNGLIVLYEVSYRRYGDEELHLCVSRKHFALERGCRLRGLSPGNYSVRIRATSLAGNGSWTEPTYFYVTDYLDVPSN
notes: written as one chain of the [αβ]2 dimer; also called hIR ectodomain
binding result [3]: binds
